{"source": "patent US12576051B2", "about": "“Methods and composition for treating respiratory obstructive diseases” (The Regents of the University of California, priority 2019, dated 2026)", "molecules": {"B1": {"name": "rhDNase: recombinant human DNase, an enzyme that breaks down extracellular DNA in mucus (protein, UniProt P24855 23-282, looked up)", "Deoxyribonuclease-1": "LKIAAFNIQTFGETKMSNATLVSYIVQILSRYDIALVQEVRDSHLTAVGKLLDNLNQDAPDTYHYVVSEPLGRNSYKERYLFVYRPDQVSAVDSYYYDDGCEPCGNDTFNREPAIVRFFSRFTEVREFAIVPLHAAPGDAVAEIDALYDVYLDVQEKWGLEDVMLMGDFNAGCSYVRPSQWSSIRLWTSPTFQWLIPDSADTTATPTHCAYDRIVVAGMLLRGAVVPDSALPFNFQAAYGLSDQLAQAISDHYPVEVMLK"}}, "key": {"secreted Muc5ac mucin": {"test_system": "secreted Muc5ac mucin", "test": "Mucolytic activity on secreted Muc5ac mucin of open porcine trachea sections (western blot)", "details": "for breaking down the mucus (secreted Muc5ac western blot) / native Muc5ac levels on epithelial luminal surfaces (immunoblot): 2 mM; for breaking down the mucus (secreted Muc5ac western blot): 5 minutes at 37° C., then 7% NaCl inhaled solution 5 mins, FIG. 19; for native Muc5ac levels on epithelial luminal surfaces (immunoblot): HCO3-Ringer with PGE2 (1 uM), 10 minutes at 37° C., FIG. 18", "method": "FIG. 18 provides the mucolytic activity of compounds on secreted Muc5ac mucin. Epithelial luminal surface of open porcine trachea sections (˜2 cm^2) were covered with HCO3-Ringer solution ([…]) containing PGE2 (1 uM), and alcian blue (0.02%), with or without compounds at a 2 mM final concentration, and incubated for 10 minutes at 37° C. Equal volumes of each collected sample were separated on vertical electrophoresis, and then transfer to an immobilon-P membrane for western blot analysis. […] Densitometric signal of the untreated sample, as control, was normalized to 100% (% arbitrary units).\nEpithelial luminal surface of open porcine trachea sections (˜2 cm^2) were covered with […] of HCO3-Ringer solution containing PGE2 (1 uM), in the presence or absence of compounds at a 2 mM final concentration, and incubated for 5 minutes at 37° C. Afterwards, […] of sterile 7% NaCl inhaled solution was added and incubated for another 5 mins at 37° C. Equal volumes of each collected sample were separated on vertical electrophoresis, and then transferred to an immobilon-P membrane for western blot analysis. […] Densitometric signal of the non-treated sample, as control, was normalized to 100% (% arbitrary units)."}, "[1]": {"test_system": "Muc5ac mucin from porcine airway mucus", "test": "Mucolytic effect on Muc5ac mucin from porcine airway mucus (western blot, densitometry)", "type": "biochemical", "details": "2 mM, 30 mins at 37° C.; compound preincubated in HCO3-Ringer, HCO3-Ringer/acetic acid or acetate buffer pH 4.5", "method": "(§1) (Upper panel) Identification of Muc5ac mucin (black arrow) by western blot, from airway mucus sample collected in HCO3-Ringer and treated with or without 2 mM of compound 646 for 30 mins at 37° C. Lane CTRL, untreated sample as control. Lane Bic, sample treated with compound preincubated in HCO3-Ringer; lane Bic/Ac, sample treated with compound preincubated with 1:1 HCO3-Ringer/Acetic acid 0.1N; lane Ac, sample treated with compound preincubated in acetate buffer 1M, pH 4.5. Lower panel, densitometric analysis of the protein bands identified with the Muc5ac mucin antibody. Densitometric signal of the sample control (CTRL) was normalized as 100% (% arbitrary units).\nas §1, with “647” for “646”, “4.5, as described under Methods.” for “4.5.”, “units). Control is pH 8, Bic 7.4, Bic/AC 6.9 AND AC 6.2” for “units).”\nas §1, with “655” for “646”\nas §1, with “compounds 656” for “compound 646”"}, "porcine airway": {"test_system": "porcine airway", "test": "Ex vivo porcine airway models (summary statement)", "from_the_text": "Abnormal mucus accumulation in airways has deleterious, and fatal consequence in patients suffering from respiratory obstructive diseases, such as cystic fibrosis (CF), COPD and asthma. Therefore, there is a need for therapies aimed at decreasing mucus accumulation to facilitate airway mucus clearance."}, "[2]": {"test_system": "respiratory secreted mucus", "test": "Mucolytic activity on respiratory secreted mucus of open porcine trachea sections (alcian blue)", "details": "2 mM, HCO3-Ringer with PGE2 (1 uM) and alcian blue (0.02%), 10 minutes at 37° C., untreated showed clusters of secreted mucus", "method": "(§2) FIG. 16 provides the mucolytic activity of compounds 646 and 647 on respiratory secreted mucus. Small sections of open porcine trachea (˜2 cm^2) were covered with HCO3-Ringer solution ([…]) containing PGE2 (1 uM) and alcian blue (0.02%), with or without compounds at a 2 mM final concentration, and then incubated for 10 minutes at 37° C.\nas §2, with “17” for “16”, “655” for “646”, “656” for “647”"}, "[3]": {"details": "cited from earlier work"}}, "note": "Structures can show the parent of a compound that is named as a salt."}
{"molecule": "[2H]C(CN)SSC([2H])CN", "note": "(stereo not drawn) [Compound 647, 2,2′-disulfanediylbis(ethan-2-d-1-amine) dihydrochloride]", "values": [{"measurement": "breaking down the mucus (secreted Muc5ac western blot)", "setting": "secreted Muc5ac mucin", "value": "consistently works well in breaking down the mucus"}, {"measurement": "native Muc5ac levels on epithelial luminal surfaces (immunoblot)", "setting": "secreted Muc5ac mucin", "value": "decreased native Muc5ac levels"}, {"measurement": "influence of acidic and basic conditions on mucolytic activity on porcine Muc5ac mucin", "setting": "[1]", "value": "enhanced under acidic conditions"}, {"measurement": "accumulation of viscous mucus and mucociliary clearance", "setting": "porcine airway", "value": "prevented accumulation of viscous mucus and improves mucociliary clearance"}, {"measurement": "appearance of secreted mucus on trachea sections", "setting": "[2]; dihydrochloride", "value": "dispersed clusters of secreted mucus"}]}
{"molecule": "Cl.Cl.[2H]C([2H])(CN)SSC([2H])([2H])CN", "note": "[Compound 655, 2,2′-disulfanediylbis(ethan-2,2-d2-1-aminium) chloride]", "values": [{"measurement": "breaking down the mucus (secreted Muc5ac western blot)", "setting": "secreted Muc5ac mucin", "value": "consistently works well in breaking down the mucus"}, {"measurement": "native Muc5ac levels on epithelial luminal surfaces (immunoblot)", "setting": "secreted Muc5ac mucin", "value": "decreased native Muc5ac levels"}, {"measurement": "mucolytic activity in comparison", "setting": "secreted Muc5ac mucin; comparison between deuterated cystamine compounds", "value": "better mucolytic activity than Compound 647"}, {"measurement": "influence of acidic and basic conditions on mucolytic activity on porcine Muc5ac mucin", "setting": "[1]", "value": "enhanced under acidic conditions"}, {"measurement": "accumulation of viscous mucus and mucociliary clearance", "setting": "porcine airway", "value": "prevented accumulation of viscous mucus and improves mucociliary clearance"}, {"measurement": "appearance of secreted mucus on trachea sections", "setting": "[2]", "value": "dispersed secreted mucus"}]}
{"molecule": "Cl.[2H]C([2H])(S)CN", "note": "[Compound 656, 2-mercaptoethan-2,2-d2-1-aminium chloride]", "values": [{"measurement": "native Muc5ac levels on epithelial luminal surfaces (immunoblot)", "setting": "secreted Muc5ac mucin", "value": "decreased native Muc5ac levels"}, {"measurement": "influence of acidic and basic conditions on mucolytic activity on porcine Muc5ac mucin", "setting": "[1]", "value": "enhanced under acidic conditions"}, {"measurement": "accumulation of viscous mucus and mucociliary clearance", "setting": "porcine airway", "value": "prevented accumulation of viscous mucus and improves mucociliary clearance"}, {"measurement": "appearance of secreted mucus on trachea sections", "setting": "[2]", "value": "dispersed secreted mucus"}]}
{"molecule": "CC(C)(C)c1cc(C(C)(C)C)c(NC(=O)c2c[nH]c3ccccc3c2=O)cc1O", "note": "[Ivacaftor, reference compound]", "values": [{"measurement": "improvement of lung function", "setting": "[3]; taken by mouth, CF with ivacaftor-responsive mutations", "value": "about 10%"}]}
{"molecule": "CC(=O)N[C@@H](CS)C(=O)O", "note": "[NAC, N-acetylcysteine, reference compound]", "values": [{"measurement": "efficacy with respect to improvement of lung function or reduction in pulmonary exacerbations", "setting": "[3]; inhaled, CF and COPD", "value": "do not support the efficacy"}]}
{"molecule": "NCCSSCCN", "note": "[cystamine, reference compound]", "values": [{"measurement": "accumulation of viscous mucus and mucociliary clearance", "setting": "porcine airway", "value": "prevented accumulation of viscous mucus and improves mucociliary clearance"}]}
{"molecule": "B1", "values": [{"measurement": "clinical benefit", "setting": "[3]; inhaled, adult CF subjects", "value": "substantial clinical benefits"}, {"measurement": "efficacy", "setting": "[3]; obstructive diseases other than CF", "value": "ineffective"}]}
